Reference: US20060148763A1, “Compounds and methods for regulating triglyceride levels” (priority 2005, published 2006)

Legend:
Type in all cases: in vivo, human
[1] = test system: serum LDL; experiment: Phase II cross-over study of P5P alone and with lisinopril in hypertensive type 2 diabetic patients: LDL; settings: for LDL change, 16 wk vs. baseline (b): LDL non-stratified data; for reduction in serum LDL levels: patients having elevated LDL levels (>2.59 mmol/L)
Experimental: (§1) Objective—A phase II clinical study was conducted to determine the effects of pyridoxal-5′-phosphate in combination with lisinopril on blood pressure and metabolic function in hypertensive patients with type 2 diabetes.
(§2) Summary of Study Design—The phase II study was a randomized, parallel group, cross-over, double-blinded to study medication, placebo-controlled comparison of P5P BID at total daily doses of 100, 300, or 1000 mg alone and in combination with 20 mg lisinopril given once daily (QD). In order to protect against antihypertensive and metabolic carry-over effects of lisinopril, all patients were randomized in 2 different treatment sequences. Patients randomized in the first treatment sequence receive an 8-week treatment with lisinopril 20 mg and P5P (or placebo) and then an 8-week treatment with P5P alone (or placebo). Patients randomized in the second treatment sequence receive an 8-week treatment with P5P alone and then an 8-week treatment with lisinopril 20 mg and P5P (or placebo). In each treatment sequence, all patients were randomized to P5P at the different prespecified dosages.
(§3) Mean trough sitting and standing BP were measured at each visit. Twenty-four hour ambulatory BP monitoring (ABPM) were performed at Visit 2 prior to randomization (end of washout period) and after week 8 (Visit 5) and week 16 (Visit 8) weeks of active therapy. Laboratory tests were performed at screening (Visit 1), prior to randomization (Visit 2), at week 2 (Visit 3a), week 8 (Visit 5), week 10 (Visit 6a), and at week 16 (Visit 8).
(§4) Treatment Plan—Two to Four-week Washout (Baseline) Period. Patients were instructed on the proper procedure for discontinuing their current antihypertensive medications (discontinuation or tapering) according to the manufacturer's label specifications. If a patient's current antihypertensive treatment needed to be tapered earlier, the Investigator complied with the corresponding timelines before randomization. With the exception of any tapering off of prior therapy, if any, no other anti-hypertensive medication was given to the patient during the washout period. Patients continued any existing diabetic treatment with sulfonylureas (tolbutamide, tolazamide, acetohexamide, chlorpropamide and second generation glyburide, glipizide, glimepiride), D-Phenylalanine derivatives, metformin, thiazolidinediones, acarbose, miglitol, and/or insulin throughout the study. Patients received placebo to be taken twice daily during the washout period. Standard diabetic medication was maintained throughout study. The duration of the washout period was two to four weeks, at the discretion of the Investigator taking into consideration whether the patient's blood pressure had stabilized following removal of any prior antihypertensive medication.
(§5) Active (Study) Medication Period: After the washout period, eligible patients were randomized to one of the 2 following sequences of treatment for 16 weeks.
(§6) Week 0 to 8: Treatment period (P5P alone (or placebo) or P5P (or placebo) and Lisinopril)
(§7) Week 8 to 16: Treatment period (P5P alone (or placebo) or P5P (or placebo) and Lisinopril)
(§8) Study Groups—The patients were randomized into one of […] groups:
(§9) Sequence 1 P5P 300 mg and then P5P 300 mg+Lisinopril 20 mg
(§10) Sequence 2 P5P 300 mg+Lisinopril 20 mg and then P5P 300 mg alone
(§11) All medications were taken at the same time each day during washout and treatment periods:
(§12) Other Efficacy Endpoints—Analytical efficacy measurements, including markers of metabolic function (insulinemia, fasting serum glucose, glycated hemoglobin, LDL, HDL, non-HDL and triglycerides), endothelial function (ICAM-1, VCAM-1, E-selectin and albuminuria), kidney function (creatinine, glomular filtration rate), CRP and homocysteine, were conducted on blood samples taken on Visits 2, 5 and 8. Samples were sent to a central laboratory for analysis.

[2] = test system: total serum cholesterol (TC); experiment: Phase II cross-over study of P5P alone and with lisinopril in hypertensive type 2 diabetic patients: total cholesterol; settings: for reduction in serum TC levels (placebo corrected): patients having elevated TC levels (>5.15 mmol/L)
Experimental: as §1, §2, §3, §4, §5, §6, §7, §8, §9, §10, §11, §12

[3] = test system: Non-HDL; experiment: Phase II cross-over study of P5P alone and with lisinopril in hypertensive type 2 diabetic patients: non-HDL
Experimental: as §1, §2, §3, §4, §5, §6, §7, §8, §9, §10, §11, §12

[4] = P5P 300 mg, patients with LDL >2.59 mmol/L
[5] = P5P 300 mg, patients with TC >5.18 mmol/L
[6] = P5P 300 mg, patients with Non HDL >3.34 mmol/L

Cc1ncc(COP(=O)(O)O)c(C=O)c1O [P5P, pyridoxal-5′-phosphate]
LDL change, 16 wk vs. baseline (b) ([1]; P5P 300 mg): −0.15 mmol/L (p = 0.194)b | reduction in serum LDL levels ([1]; P5P 300 mg): about 0.41 mmol/L | LDL change [1, 4]: −0.41 mmol/L (p = 0.04) | LDL reduction [1, 4]: (12% reduction) | LDL change, 16 wk vs. baseline (b) ([1]; P5P 1000 mg): −0.15 mmol/L (p = 0.197)b | reduction in serum LDL levels ([1]; P5P 1000 mg): about 0.53 mmol/L | LDL change ([1]; P5P 1000 mg, patients with LDL >2.59 mmol/L): −0.53 mmol/L (p = 0.075) | average reduction in serum LDL levels (placebo corrected) ([1]; patients taking 300 mg or 1000 mg of P5P): 0.27 mmol/L | TC change vs baseline (b) ([2]; P5P 300 mg, TC non-stratified): −0.18 mmol/L (p = 0.273)b | reduction in serum TC levels (placebo corrected) ([2]; P5P 300 mg): about 0.91 mmol/L | TC change [2, 5]: −0.91 mmol/L (p = 0.02) | TC reduction vs baseline (b) [2, 5]: (15.7%)b | TC change vs baseline (b) ([2]; P5P 1000 mg, TC non-stratified): −0.29 mmol/L (p = 0.075)b | reduction in serum TC levels (placebo corrected) ([2]; P5P 1000 mg): about 1.03 mmol/L | TC change vs baseline (b) ([2]; P5P 1000 mg, patients with TC >5.18 mmol/L): −1.03 mmol/L (p = 0.001)b | Non-HDL change vs baseline (b) ([3]; P5P 300 mg, non-stratified, calculated number, not measured in plasma): −0.21 mmol/L (p=)b | Non-HDL change [3, 6]: −0.68 mmol/L (p = 0.029) | Non-HDL reduction vs baseline (b) [3, 6]: (15%)b | reduction in non-HDL compared to baseline ([3]; P5P 300 mg, patients with non-HDL >3.34 mmol/L at baseline): 0.68 mmol/L | Non-HDL change vs baseline (b) ([3]; P5P 1000 mg, non-stratified, calculated number, not measured in plasma): −0.26 mmol/L (p = 0.089)b | Non-HDL change vs baseline (b) ([3]; P5P 1000 mg, patients with Non HDL >3.34 mmol/L): −0.71 mmol/L (p = 0.007)b | decrease in non-HDL vs. baseline ([3]; P5P 1000 mg, patients with non-HDL. 3.34 mmol/L): 0.71 mmol/L
